Kd data for one molecule are collected here from paper PMC10925693, “The Mla system and its role in maintaining outer membrane barrier function in Stenotrophomonas maltophilia” (Frontiers in Cellular and Infection Microbiology, 2024).

For this assay, the target named is MlaC (Smlt4673) (Stenotrophomonas maltophilia, UniProt B2FP85). Put plainly: MicroScale Thermophoresis (MST), supported by nanoDSF Tm shift. Type of assay: binding.
Sequence of MlaC (Smlt4673) (B2FP85 entry or part of it): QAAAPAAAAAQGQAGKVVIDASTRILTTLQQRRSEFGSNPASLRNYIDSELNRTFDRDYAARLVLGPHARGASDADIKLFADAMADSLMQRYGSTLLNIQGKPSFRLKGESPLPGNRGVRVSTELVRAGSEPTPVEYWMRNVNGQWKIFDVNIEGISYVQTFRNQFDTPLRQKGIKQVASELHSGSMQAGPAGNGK

Broadly, the Kd is the free concentration of one partner at which half of the binding sites on the other are occupied at equilibrium, for simple one-to-one binding. In the case of `CCCCCCCCCCCCCC(=O)OC[C@H](COP(=O)(O)OCCN)OC(=O)CCCCCCCCCCCCC` [PE14/14, PE C14:0/C14:0], the dissociation constant Kd was 795 µM.
